The text below walks through data of patent publication US6914064B2, “1,4-Disubstituted piperazine derivatives useful as uro-selective α1-adrenoceptor blockers” (Ranbaxy Laboratories Limited, priority 2000, dated 2005).

Data set [1] addresses T1, α1A adrenoceptor (Rattus norvegicus, UniProt P43140).
T1 construct: from tissue; host or cells: rat submaxillary gland membranes
T1 sequence (P43140 1-466): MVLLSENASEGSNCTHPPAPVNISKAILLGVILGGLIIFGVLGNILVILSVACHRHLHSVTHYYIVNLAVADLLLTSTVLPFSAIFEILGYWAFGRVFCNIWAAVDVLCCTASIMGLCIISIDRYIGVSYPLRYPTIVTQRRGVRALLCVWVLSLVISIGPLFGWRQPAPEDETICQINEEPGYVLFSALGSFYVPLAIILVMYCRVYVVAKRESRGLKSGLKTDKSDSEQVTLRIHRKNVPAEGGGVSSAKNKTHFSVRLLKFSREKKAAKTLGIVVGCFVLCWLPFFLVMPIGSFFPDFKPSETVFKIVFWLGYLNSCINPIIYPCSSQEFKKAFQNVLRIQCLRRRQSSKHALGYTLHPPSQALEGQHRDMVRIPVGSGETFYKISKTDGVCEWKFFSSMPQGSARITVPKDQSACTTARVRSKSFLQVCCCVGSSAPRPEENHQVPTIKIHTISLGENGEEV
The data set is described as follows: Receptor binding assay, displacement of [3H]prazosin, rat submaxillary membranes. The note with it: for Ki: [3H]prazosin displacement, rat submaxillary membranes, read-out: α1A (Rat submaxillary) Ki; for Selectivity α1B/α1A: ratio of Ki α1B (rat liver) / α1A (rat submaxillary). The gist of the method: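 Rat submaxillary gland membranes (150-250 μg protein) incubated 1 h at 24-25° C in Tris HCl 50 mM, EDTA 5 mM, pH 7.4. Non-specific binding set with 300 nM prazosin; filtration then counting of bound radioactivity. IC50 and Kd from non-linear curve fitting.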

For data set [2], the target named is T2, α1B adrenoceptor (spleen) (Rattus norvegicus, UniProt P15823).
T2 construct: Isolated tissues were mounted in organ bath containing Krebs Henseleit buffer; from tissue; host or cells: isolated spleen of male wistar rats
T2 sequence (P15823 1-515): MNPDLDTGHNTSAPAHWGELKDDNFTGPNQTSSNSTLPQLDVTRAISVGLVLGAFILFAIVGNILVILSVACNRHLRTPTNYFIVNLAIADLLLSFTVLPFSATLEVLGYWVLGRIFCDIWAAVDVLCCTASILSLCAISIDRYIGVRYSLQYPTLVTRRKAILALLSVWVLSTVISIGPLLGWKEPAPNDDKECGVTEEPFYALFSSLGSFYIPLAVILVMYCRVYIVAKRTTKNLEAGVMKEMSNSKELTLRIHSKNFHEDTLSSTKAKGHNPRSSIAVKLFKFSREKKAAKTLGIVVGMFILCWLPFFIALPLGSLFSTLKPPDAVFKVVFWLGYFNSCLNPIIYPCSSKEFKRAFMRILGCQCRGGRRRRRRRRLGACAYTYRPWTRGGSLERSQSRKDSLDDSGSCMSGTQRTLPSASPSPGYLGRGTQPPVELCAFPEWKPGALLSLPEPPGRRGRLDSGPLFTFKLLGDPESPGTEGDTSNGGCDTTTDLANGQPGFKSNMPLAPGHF
The data set is described as follows: In vitro functional study, antagonism of phenylepinephrine-induced contraction of spleen. The format is biochemical. The note with it: tested compound at 0.1, 1 and 10 mM, read-out: α Adrenoceptor Subtype (pKB) α1B (converted). An excerpt: (§1) In order to study selectivity of action of these compounds towards different α-adrenoceptor subtypes, the ability of these compounds to antagonise α1-adrenoceptor agonist induced contractile response on aorta (α1Dprostate (α1A and spleen (α1B was studied. Aorta and spleen tissues were isolated from urethane anaesthetised (1.5 gm/kg) male wistar rats. Isolated tissues were mounted in organ bath containing Krebs Henseleit buffer of following composition (mM): NaCl 118; KCl 4.7; CaCl2 2.5; MgSO4. 7H2O 1.2; NaHCO3 25; KH2PO41.2; glucose 11.5. Buffer was maintained at 37° C. and aereated with a mixture of 95% O2 and 5% CO2. A resting tension of 2 g (aorta) or 1 g (spleen and prostate)was applied to tissues. Contractile response was monitored using a force displacement transducer and recorded on chart recorders. Tissues were allowed to equilibrate for 2 hours. At the end of equilibration period, concentration response curves to norepinephrine (aorta) and phenylepinephrine (spleen and prostate) were obtained in absence and presence of tested compound (at concentration of 0.1,1 and 10 mM). Antagonist affinity was calculated and expressed as pKB vales in Table II.

In data set [3] the target is T3, α1D adrenoceptor (aorta) (Rattus norvegicus, UniProt P23944).
T3 construct: Isolated tissues were mounted in organ bath containing Krebs Henseleit buffer; from tissue; host or cells: isolated aorta of male wistar rats
T3 sequence (P23944 1-561): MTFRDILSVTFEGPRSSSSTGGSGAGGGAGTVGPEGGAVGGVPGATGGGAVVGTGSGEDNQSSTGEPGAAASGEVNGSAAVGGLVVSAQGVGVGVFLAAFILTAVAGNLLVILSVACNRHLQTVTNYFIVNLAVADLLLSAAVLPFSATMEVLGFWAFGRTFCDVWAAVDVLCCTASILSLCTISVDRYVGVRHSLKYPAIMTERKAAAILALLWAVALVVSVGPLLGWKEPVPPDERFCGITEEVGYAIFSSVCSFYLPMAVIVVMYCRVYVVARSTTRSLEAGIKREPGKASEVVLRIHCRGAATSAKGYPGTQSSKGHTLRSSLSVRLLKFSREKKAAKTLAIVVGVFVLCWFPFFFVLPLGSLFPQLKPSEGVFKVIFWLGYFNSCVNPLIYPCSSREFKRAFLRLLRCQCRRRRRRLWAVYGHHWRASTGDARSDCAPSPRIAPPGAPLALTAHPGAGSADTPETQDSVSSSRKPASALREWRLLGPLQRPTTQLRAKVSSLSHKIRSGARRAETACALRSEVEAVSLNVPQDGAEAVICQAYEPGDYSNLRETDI
Description: In vitro functional study, antagonism of norepinephrine-induced contraction of aorta. Format: biochemical. The note with it: tested compound at 0.1, 1 and 10 mM, read-out: α Adrenoceptor Subtype (pKB) α1D (converted).
From the text: as §1

Molecules are shown by their SMILES.

A word on the Ki: it is a dissociation constant, usually derived from enzyme kinetics or from competition with a known ligand. Usually melting point stands for the temperature, or range, at which the solid turns liquid. `CCCOc1ccccc1N1CCN(CCCN2C(=O)C3CC=CCC3C2=O)CC1.Cl` (centres unmarked) [Compound 24, 2-[3-{4-(2-Propoxyphenyl)piperazin-1-yl}propyl]-3a,4,7,7a-tetrahydro-1H-isoindole-1,3(2H)-dione hydrochloride] showed a melting point of 193 to 194 °C. In data set [1], the Ki came out at 0.24 nM and the “Selectivity α1B/α1A” value stood at 117. The Kb in data set [2] was 14.1 nM. Further, in data set [3], the Kb was 0.537 nM.
In the same order, the values of `CC(C)Oc1ccccc1N1CCN(CCCN2C(=O)C3CC=CCC3C2=O)CC1.Cl` (centres unmarked) [Compound 23, 2-[3-{4-(2-Isopropoxyphenyl)piperazin-1-yl}propyl]-3a,4,7,7a-tetrahydro-1H-isoindole-1,3(2H)-dione hydrochloride] are 223 to 224 °C, 0.16 nM, 175, 19.5 nM and 0.123 nM.
In the same order, the values of `COc1ccccc1N1CCN(CCCN2C(=O)C3CC=CCC3C2=O)CC1.Cl` (centres unmarked) [Compound 01, 2-[3-{4-(2-Methoxyphenyl)piperazin-1-yl}propyl]-3a,4,7,7a-tetrahydro-1H-isoindole-1,3(2H)-dione hydrochloride] are 184 to 185 °C, 0.8 nM, 91, 21.9 nM and 2.29 nM.
On the same counts, the results for `CCOc1ccccc1N1CCN(CCCN2C(=O)C3CC=CCC3C2=O)CC1.Cl` (centres unmarked) [Compound 11, 2-[3-{4-(2-Ethoxyphenyl)piperazin-1-yl}propyl]-3a,4,7,7a-tetrahydro-1H-isoindole-1,3(2H)-dione hydrochloride] are 221.9 to 222.7 °C, 0.13 nM, 146, 5.25 nM and 1.74 nM.
